These are literature values, as cited in patent publication US20060275243A1, “Cosmetic or therapeutic combination preparation with theanine” (ROVI GmbH & Co. Kosmetische Rohstoffe KG, priority 2005, published 2006).

The conditions of the data set: investigations referred to in the description.

As for `CCNC(=O)CC[C@H](N)C(=O)O` [theanine], the “effect on the cramp-triggering effect of caffeine” value is on record as “can inhibit the cramp-triggering effect of caffeine”.
